Source: article PMC5247395 (EJNMMI Research, 2017)

Experiments:
[1] = tested on: PC-3 PIP/flu tumor-bearing mice; assay: Biodistribution in PC-3 PIP/flu tumor-bearing mice; details: i.v.; for PC-3 flu Tumor: PSMA^neg xenograft; for PC-3 PIP Tumor: PSMA^pos xenograft
Description: In vivo experiments were approved by the local veterinarian department and conducted in accordance with the Swiss law of animal protection. All mice were obtained from Charles River Laboratories (Sulzfeld, Germany), at the age of 5–6 weeks. Female, athymic nude Balb/c mice were subcutaneously inoculated with PC-3 PIP cells (6 × 10^6 cells in 100 μL Hank’s balanced salt solution (HBSS) with Ca^2+/Mg^2+) on the right shoulder and with PC-3 flu cells (5 × 10^6 cells in 100 μL HBSS with Ca^2+/Mg^2+) on the left shoulder 2 weeks before the performance of the experiments.
Mice were sacrificed at different time points post injection (p.i.) of the radioligands. Selected tissues and organs were collected, weighed and measured using a γ-counter. The results were decay-corrected and listed as a percentage of the injected activity per gram of tissue mass (% IA/g).

PSMA = molecular target: T1, PSMA (Homo sapiens, UniProt Q04609); assay: Saturation binding assay on PC-3 PIP cells (PSMA affinity, KD); details: for Kd: 30 min at 4 °C, saturation binding; for Relative PSMA-binding affinity: inverse molar ratio of average KD values, ^177Lu-PSMA-617 set to 1
T1 construct: expressed in transfected cells; host or cells: PC-3 PIP cells (PSMA-positive subline of human PC-3 prostate cancer cells), provided by Prof; Martin Pomper, Johns Hopkins
T1 sequence (Q04609 whole entry): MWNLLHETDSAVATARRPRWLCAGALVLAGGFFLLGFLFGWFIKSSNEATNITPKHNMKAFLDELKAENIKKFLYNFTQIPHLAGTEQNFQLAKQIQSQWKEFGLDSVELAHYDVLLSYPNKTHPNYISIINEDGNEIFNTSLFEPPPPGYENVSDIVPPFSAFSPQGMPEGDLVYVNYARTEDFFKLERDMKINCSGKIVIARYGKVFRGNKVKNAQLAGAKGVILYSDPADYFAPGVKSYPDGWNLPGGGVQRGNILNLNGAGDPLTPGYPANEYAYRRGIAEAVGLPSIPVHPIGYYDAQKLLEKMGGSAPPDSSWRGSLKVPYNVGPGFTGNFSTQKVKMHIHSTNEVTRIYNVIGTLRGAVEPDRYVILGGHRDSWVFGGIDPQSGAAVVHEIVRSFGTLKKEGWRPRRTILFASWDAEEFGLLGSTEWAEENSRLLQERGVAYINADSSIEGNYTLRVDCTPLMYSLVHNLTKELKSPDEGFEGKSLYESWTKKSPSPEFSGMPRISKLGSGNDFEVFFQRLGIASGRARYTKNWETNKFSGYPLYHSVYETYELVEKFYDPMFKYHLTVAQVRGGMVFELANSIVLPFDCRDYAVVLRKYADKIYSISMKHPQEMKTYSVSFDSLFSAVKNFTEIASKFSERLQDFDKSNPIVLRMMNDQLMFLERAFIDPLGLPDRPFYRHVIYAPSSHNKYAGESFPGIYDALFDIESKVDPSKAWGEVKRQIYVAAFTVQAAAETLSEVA
Description: Determination of the PSMA affinity was performed by saturation binding assays using PC-3 PIP cells and different concentrations of ^nat/44Sc-, ^nat/177Lu-, ^nat/68Ga-PSMA-617, or ^nat/68Ga-PSMA-11, respectively (Additional file 1).
Determination of the KD values was performed by saturation binding assays using PSMA^pos PC-3 PIP cells. After successful radiolabeling of the PSMA ligands, a 2.5-fold molar excess of the corresponding cold metal was added and the reaction mixture was incubated for another 10 min at 95 °C. Quality control was performed again after reaction of the radioligands with the “cold” metal as described in the main manuscript.
The cells were seeded in 48-well-plates (8 x 10^5 cells in 500 uL RPMI medium/well) allowing adhesion and growth overnight at 37 °C and 5% CO2. For the entire experiment, the well-plates were kept on ice. After removal of the supernatant, the cells were washed once with ice-cold PBS pH 7.4 prior to the addition of different concentrations (1 nM-2 µM) of either ^nat/44Sc-, ^nat/177Lu-, ^nat/67/68Ga-PSMA-617 or ^nat/67/68Ga-PSMA-11 in ice-cold RPMI medium without supplements. For the determination of non-specific binding, cell samples were incubated with 2-phosphonomethyl pentanedioic acid (2-PMPA, 200 μM). The well-plates were incubated for 30 min at 4 °C. Then, the supernatants were removed and the cells washed twice with ice-cold PBS followed by addition of NaOH (1 M, 600 µL) to each well. The cell suspensions were transferred to 4 mL tubes for measurement in a γ-counter (Wallac Wizard 1480, Perkin Elmer). The KD values were determined by plotting specific-binding (total binding minus unspecific binding) against the molar concentration of the added radioligands followed by nonlinear regression analysis using GraphPad Prism 7 software.

[2] = n-octanol/PBS distribution coefficient (shake-flask); type: physicochemical; details: n-octanol/PBS pH 7.4, shake-flask
Description: The distribution coefficients (logD values) of the radioligands were determined by a shake-flask method using liquid-liquid extraction followed by phase separation, as previously reported (Additional file 1). In brief, the PSMA ligands were labeled at a specific activity of 5 MBq/nmol. […] The vials were vortexed vigorously for 1 min and then centrifuged for 6 min for phase separation. The concentration of radioactivity in a defined volume of each layer was measured in a γ-counter (Perkin Elmer, Wallac Wizard 1480). The distribution coefficients were expressed as the logarithm of the ratio of counts per minute (cpm) measured in the n-octanol phase to the cpm measure in the PBS phase. The values are reported as the average of at least three independent measurements (± standard deviation, SD), each performed with five replicates. Data were analyzed for significance using a one-way ANOVA test (GraphPad Prism software, version 7). A p value of <0.05 was considered as statistically significant.

In the case of `O=C([O-])CN1CCN(CC(=O)[O-])CCN(CC(=O)NCC2CCC(C(=O)NC(Cc3ccc4ccccc4c3)C(=O)NCCCCC(NC(=O)NC(CCC(=O)O)C(=O)O)C(=O)O)CC2)CCN(CC(=O)[O-])CC1.[44Sc+3]` (stereo not shown) [^44Sc-PSMA-617], the Blood ([1]; 15 min p.i.) is reported as 6.76 ± 0.28 % IA/g, the Bone ([1]; 15 min p.i.) is reported as 2.75 ± 0.73 % IA/g and the Heart ([1]; 15 min p.i.) is reported as 2.79 ± 0.31 % IA/g. It also gave an Intestines ([1]; 15 min p.i.) of 1.89 ± 0.13 % IA/g, a Kidneys ([1]; 15 min p.i.) of 37.7 ± 0.82 % IA/g and a Liver ([1]; 15 min p.i.) of 1.98 ± 0.19 % IA/g. The Lung ([1]; 15 min p.i.) was 5.24 ± 0.30 % IA/g, the Muscle ([1]; 15 min p.i.) was 1.37 ± 0.11 % IA/g and the Salivary glands ([1]; 15 min p.i.) was 2.27 ± 0.22 % IA/g. For the same compound, the Spleen ([1]; 15 min p.i.) was 3.06 ± 0.18 % IA/g, the Stomach ([1]; 15 min p.i.) was 2.25 ± 0.16 % IA/g and the “PC-3 flu Tumor” value ([1]; 15 min p.i.) was 2.14 ± 0.13 % IA/g. For the same compound, the “PC-3 PIP Tumor” value ([1]; 15 min p.i.) was 36.5 ± 7.44 % IA/g, the Blood ([1]; 30 min p.i.) was 2.52 ± 0.43 % IA/g and the Bone ([1]; 30 min p.i.) was 0.92 ± 0.19 % IA/g. For the same compound, the Heart ([1]; 30 min p.i.) was 1.31 ± 0.14 % IA/g, the Intestines ([1]; 30 min p.i.) was 1.05 ± 0.32 % IA/g and the Kidneys ([1]; 30 min p.i.) was 27.8 ± 3.29 % IA/g. The Liver ([1]; 30 min p.i.) was 0.80 ± 0.05 % IA/g, the Lung ([1]; 30 min p.i.) was 2.06 ± 0.25 % IA/g and the Muscle ([1]; 30 min p.i.) was 1.08 ± 0.20 % IA/g. The Salivary glands ([1]; 30 min p.i.) was 1.21 ± 0.14 % IA/g, the Spleen ([1]; 30 min p.i.) was 2.20 ± 0.67 % IA/g and the Stomach ([1]; 30 min p.i.) was 0.91 ± 0.17 % IA/g. For the same compound, the “PC-3 flu Tumor” value ([1]; 30 min p.i.) was 1.51 ± 0.18 % IA/g, the “PC-3 PIP Tumor” value ([1]; 30 min p.i.) was 44.4 ± 7.51 % IA/g and the Bone ([1]; 2 h p.i.) was 0.26 ± 0.13 % IA/g. For the same compound, the Heart ([1]; 2 h p.i.) was 0.36 ± 0.04 % IA/g, the Intestines ([1]; 2 h p.i.) was 0.15 ± 0.04 % IA/g and the Kidneys ([1]; 2 h p.i.) was 5.97 ± 0.90 % IA/g. The Liver ([1]; 2 h p.i.) was 0.22 ± 0.03 % IA/g, the Lung ([1]; 2 h p.i.) was 0.37 ± 0.01 % IA/g and the Muscle ([1]; 2 h p.i.) was 0.36 ± 0.11 % IA/g. The Salivary glands ([1]; 2 h p.i.) was 0.36 ± 0.07 % IA/g, the Spleen ([1]; 2 h p.i.) was 0.81 ± 0.34 % IA/g and the Stomach ([1]; 2 h p.i.) was 0.20 ± 0.05 % IA/g. For the same compound, the “PC-3 flu Tumor” value ([1]; 2 h p.i.) was 0.32 ± 0.16 % IA/g, the “PC-3 PIP Tumor” value ([1]; 2 h p.i.) was 46.7 ± 4.36 % IA/g and the “PC-3 flu Tumor” value ([1]; 4 h p.i.) was 0.40 ± 0.08 % IA/g. The “PC-3 PIP Tumor” value ([1]; 4 h p.i.) was 51.9 ± 4.05 % IA/g, the Blood ([1]; 6 h p.i.) was 0.27 ± 0.02 % IA/g and the Bone ([1]; 6 h p.i.) was 0.65 ± 0.21 % IA/g. For the same compound, the Heart ([1]; 6 h p.i.) was 0.63 ± 0.10 % IA/g, the Intestines ([1]; 6 h p.i.) was 0.13 ± 0.01 % IA/g and the Kidneys ([1]; 6 h p.i.) was 3.09 ± 0.58 % IA/g. It also gave a Liver ([1]; 6 h p.i.) of 0.31 ± 0.02 % IA/g, a Lung ([1]; 6 h p.i.) of 0.51 ± 0.06 % IA/g and a Muscle ([1]; 6 h p.i.) of 0.94 ± 0.08 % IA/g. It also gave a Salivary glands ([1]; 6 h p.i.) of 0.75 ± 0.17 % IA/g, a Spleen ([1]; 6 h p.i.) of 0.90 ± 0.03 % IA/g and a Stomach ([1]; 6 h p.i.) of 0.39 ± 0.07 % IA/g. For the same compound, the “PC-3 flu Tumor” value ([1]; 6 h p.i.) was 0.24 ± 0.02 % IA/g, the “PC-3 PIP Tumor” value ([1]; 6 h p.i.) was 52.0 ± 8.42 % IA/g and the Kd (PSMA) was 33 ± 12 nM. The “Relative PSMA-binding affinity” value (PSMA) was 1.2 and the LogD values [2] was −4.21 ± 0.04.

In the case of `O=C([O-])CN1CCN(CC(=O)[O-])CCN(CC(=O)NCC2CCC(C(=O)N[C@@H](Cc3ccc4ccccc4c3)C(=O)NCCCC[C@H](NC(=O)N[C@@H](CCC(=O)O)C(=O)O)C(=O)O)CC2)CCN(CC(=O)[O-])CC1.[177Lu+3]` (stereo partly shown) [^177Lu-PSMA-617], the Blood ([1]; 15 min p.i.) is reported as 7.28 ± 0.32 % IA/g, the Bone ([1]; 15 min p.i.) is reported as 2.03 ± 0.10 % IA/g and the Heart ([1]; 15 min p.i.) is reported as 2.87 ± 0.17 % IA/g. The Intestines ([1]; 15 min p.i.) was 1.64 ± 0.12 % IA/g, the Kidneys ([1]; 15 min p.i.) was 30.8 ± 4.52 % IA/g and the Liver ([1]; 15 min p.i.) was 1.63 ± 0.27 % IA/g. For the same compound, the Lung ([1]; 15 min p.i.) was 4.76 ± 0.55 % IA/g, the Muscle ([1]; 15 min p.i.) was 1.78 ± 0.21 % IA/g and the Salivary glands ([1]; 15 min p.i.) was 2.11 ± 0.19 % IA/g. For the same compound, the Spleen ([1]; 15 min p.i.) was 2.85 ± 0.38 % IA/g, the Stomach ([1]; 15 min p.i.) was 1.70 ± 0.12 % IA/g and the “PC-3 flu Tumor” value ([1]; 15 min p.i.) was 2.49 ± 0.45 % IA/g. The “PC-3 PIP Tumor” value ([1]; 15 min p.i.) was 32.3 ± 3.54 % IA/g, the Blood ([1]; 30 min p.i.) was 3.05 ± 0.81 % IA/g and the Bone ([1]; 30 min p.i.) was 1.07 ± 0.27 % IA/g. For the same compound, the Heart ([1]; 30 min p.i.) was 1.32 ± 0.28 % IA/g, the Intestines ([1]; 30 min p.i.) was 1.13 ± 0.45 % IA/g and the Kidneys ([1]; 30 min p.i.) was 22.6 ± 1.78 % IA/g. The Liver ([1]; 30 min p.i.) was 0.90 ± 0.15 % IA/g, the Lung ([1]; 30 min p.i.) was 2.51 ± 0.44 % IA/g and the Muscle ([1]; 30 min p.i.) was 0.75 ± 0.20 % IA/g. It also gave a Salivary glands ([1]; 30 min p.i.) of 1.01 ± 0.27 % IA/g, a Spleen ([1]; 30 min p.i.) of 1.55 ± 0.05 % IA/g and a Stomach ([1]; 30 min p.i.) of 0.98 ± 0.35 % IA/g. For the same compound, the “PC-3 flu Tumor” value ([1]; 30 min p.i.) was 1.22 ± 0.32 % IA/g, the “PC-3 PIP Tumor” value ([1]; 30 min p.i.) was 47.0 ± 3.52 % IA/g and the Bone ([1]; 2 h p.i.) was 0.12 ± 0.07 % IA/g. For the same compound, the Heart ([1]; 2 h p.i.) was 0.06 ± 0.00 % IA/g, the Intestines ([1]; 2 h p.i.) was 0.14 ± 0.06 % IA/g and the Kidneys ([1]; 2 h p.i.) was 3.97 ± 0.56 % IA/g. For the same compound, the Liver ([1]; 2 h p.i.) was 0.13 ± 0.02 % IA/g, the Lung ([1]; 2 h p.i.) was 0.15 ± 0.03 % IA/g and the Muscle ([1]; 2 h p.i.) was 0.04 ± 0.02 % IA/g. The Salivary glands ([1]; 2 h p.i.) was 0.10 ± 0.03 % IA/g, the Spleen ([1]; 2 h p.i.) was 0.21 ± 0.03 % IA/g and the Stomach ([1]; 2 h p.i.) was 0.08 ± 0.02 % IA/g. For the same compound, the “PC-3 flu Tumor” value ([1]; 2 h p.i.) was 0.13 ± 0.01 % IA/g, the “PC-3 PIP Tumor” value ([1]; 2 h p.i.) was 45.8 ± 4.02 % IA/g and the “PC-3 flu Tumor” value ([1]; 4 h p.i.) was 0.08 ± 0.01 % IA/g. For the same compound, the “PC-3 PIP Tumor” value ([1]; 4 h p.i.) was 56.0 ± 8.0 % IA/g, the Blood ([1]; 6 h p.i.) was 0.02 ± 0.00 % IA/g and the Bone ([1]; 6 h p.i.) was 0.05 ± 0.01 % IA/g. It also gave a Heart ([1]; 6 h p.i.) of 0.03 ± 0.00 % IA/g, an Intestines ([1]; 6 h p.i.) of 0.03 ± 0.00 % IA/g and a Kidneys ([1]; 6 h p.i.) of 2.47 ± 0.28 % IA/g. For the same compound, the Liver ([1]; 6 h p.i.) was 0.09 ± 0.01 % IA/g, the Lung ([1]; 6 h p.i.) was 0.06 ± 0.02 % IA/g and the Muscle ([1]; 6 h p.i.) was 0.02 ± 0.01 % IA/g. The Salivary glands ([1]; 6 h p.i.) was 0.04 ± 0.00 % IA/g, the Spleen ([1]; 6 h p.i.) was 0.11 ± 0.01 % IA/g and the Stomach ([1]; 6 h p.i.) was 0.05 ± 0.01 % IA/g. For the same compound, the “PC-3 flu Tumor” value ([1]; 6 h p.i.) was 0.06 ± 0.01 % IA/g, the “PC-3 PIP Tumor” value ([1]; 6 h p.i.) was 55.4 ± 1.67 % IA/g and the Kd (PSMA) was 39 ± 23 nM. For the same compound, the “Relative PSMA-binding affinity” value (PSMA) was 1.0 and the LogD values [2] was −4.18 ± 0.06.
